From PubChem BioAssay AID2060617 (Molecular Pharmacology Branch, DTP, NCI, 2025)
Where “and” joins values, the source holds several entries; their conditions need not be identical. Identical values can stand only once.

Test system: 485368-065-R4-J2-PDC spheroids with HUVEC/MSC, viability
Assay: Anticancer human tumor 485368-065-R4-J2-PDC patient-derived pancreatic carcinoma cell line growth inhibition [CLK]
Settings: for viability, T/C: stronger effect = lower value
Description: A high-throughput screen of multi-cell type tumor spheroids was designed to identify active combinations of […] and targeted small molecules. Complex spheroids include a stromal component modeled by human endothelial cells (HUVEC) and fibroblasts modeled by human mesenchymal stem cells (MSCs). The concentration ranges selected for each drug and investigational agent were based upon clinically achievable concentrations if the clinical Cmax of the agent was known.
Compounds. The drugs and investigational agents: cirtuvivint (SM08502; NSC835563), CC-671 (NSC850746), vemurafenib (NSC761431), tapotoclax (NSC804041), sotorasib (NSC818433), adagrasib (NSC831453), MRTX-1133 (NSC836407), BAY2416964 (NSC825713), copanlisib (NSC816437), inavolisib (NSC800729), abemaciclib (NSC768073), osimertinib (NSC779217), entinostat (NSC756642), eltanexor (KPT-8602, NSC794443), venetoclax (NSC766270), ceralasertib (NSC777638), bortezomib (NSC756655), olaparib (NSC753686), talazoparib (NSC767125), alisertib (NSC759677), peposertib (NSC802822), gemcitabine (NSC613327), 5-fluorouracil (NSC19893), SN-38 (NSC673596), oxaliplatin (NSC266046), paclitaxel (NSC125973), and doxorubicin (NSC123127), were obtained from the National Cancer Institute (NCI) Developmental Therapeutics Program Chemical Repository. The FDA-approved anticancer drug set is available from the Developmental Therapeutics Program at https://dtp.cancer.gov/organization/dscb/obtaining/available plates.htm. […] The stock solutions were prepared in dimethyl sulfoxide (DMSO, Sigma-Aldrich, St. Louis, MO, cat. D2650), except for the platinum complexes which were prepared in saline (Quality Biological, Gaithersburg, MD, cat. 114-055-101), at 800-fold the tested concentration and stored at -70 degrees C prior to their use. All drugs and investigational agents were tested over a range starting from a high concentration at or near the clinical Cmax and decreasing in half-log increments. If the clinical Cmax for an agent had not been determined, the highest concentration tested was 10 microM.
Cell Culture. All cells were maintained in an incubator at 37 degrees C and 5% CO2 with 95% humidity. The PDC lines were cultured according to standard operating procedures established by the NCI PDMR. Briefly, all PDCs were thawed and cultured in Matrigel-coated flasks prepared with a working solution of 1X Ham's F-12 nutrient mix, without supplementation (Invitrogen, Waltham, MA, cat. 11765054), 100 U/mL penicillin-streptomycin (Invitrogen, cat. 15140122), and 2.5% Matrigel (Corning Inc., Corning, NY, cat. 354248) for the first three passages. The 947758-054-R-J2-PDC line was cultured in 6B/Colon 1A media, which includes advanced DMEM/F-12 (Thermo Fisher Scientific, cat. 12634028), 10 mM HEPES (Thermo Fisher Scientific, cat. 15630080), 1X GlutaMAX supplement (Thermo Fisher Scientific, cat. 35050061), 0.1 mg/mL primocin (InvivoGen, cat. ant-pm-2), 10% defined fetal bovine serum, heat inactivated (HyClone Laboratories Inc., cat. SH30070.03HI), 1.25 mM N-Acetyl-L-cysteine (Sigma-Aldrich, cat. A9165), 10 mM nicotinamide (Sigma-Aldrich, cat. N0636), 1X B-27 supplement (Thermo Fisher Scientific, cat. 17504044), 1X N-2 supplement (Thermo Fisher Scientific, cat. 17502048), and 10 microM Y-27632 dihydrochloride (Tocris Bioscience, cat. 1254). The 876862-298-R-J1-PDC was cultured in 6E media, which includes all 6B/Colon 1A media components plus 50% L-WRN conditioned media (ATCC, cat. CRL-3276), 50 ng/mL recombinant human EGF recombinant protein (hEGF; Thermo Fisher Scientific, cat. PHG0311), 10 ng/mL recombinant human fibroblast growth factor 10 (hGFG-10; PeproTech, cat. 100-26), 1 ng/mL recombinant human fibroblast growth factor 2 (hFGF-2; PeproTech, cat. 100-18B), and 1 µM prostaglandin E2 (PGE2; Tocris, cat. 2296). The 227483-062-R1-J1-PDC line was cultured in Panc media, containing all 6E components except hFGF-2, with the addition of 500 nM SB-431542 (Selleckchem, cat. S1067) and 10 nM gastrin (Tocris, cat. 3006). […]
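Also: spheroids exposed to compounds for seven days.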
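For viability, T/C in this document: 100% = DMSO vehicle control wells.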

Compound	viability, T/C (compound 0.0316 µM)	viability, T/C (compound 0.1 µM)	viability, T/C (compound 0.316 µM)	viability, T/C (compound 1 µM)	viability, T/C (compound 3.16 µM)	viability, T/C (compound 10 µM)	IC50 (curve of compound)	other results
C#Cc1c(F)ccc2cc(O)cc(-c3ncc4c(N5CC6CCC(C5)N6)nc(OCC56CCCN5CC(F)C6)nc4c3F)c12 (stereo not drawn)	99.6% and 90.9%	97.5% and 111%	102% and 103%	98.2% and 102%	117% and 107%	114% and 106%	> 10 µM	
C=C(F)C(=O)N1CCN(c2nc(OCC3CCCN3C)nc3c2CCN(c2cccc4cccc(Cl)c24)C3)CC1CC#N (stereo not drawn)	94.9% and 103%	97% and 106%	95.6% and 100%	106% and 105%	121% and 113%	104% and 126%	> 10 µM	
C=CC(=O)N1CCN(c2nc(=O)n(-c3c(C)ccnc3C(C)C)c3nc(-c4c(O)cccc4F)c(F)cc23)C(C)C1 (stereo not drawn)	96.8% and 96.9%	96.4% and 107%	99.8% and 100%	97.9% and 106%	92.3% and 88.3%	89.2% and 93.7%	> 10 µM	
C=CC(=O)Nc1cc(Nc2nccc(-c3cn(C)c4ccccc34)n2)c(OC)cc1N(C)CCN(C)C							> 0.3 µM	viability, T/C (compound 0.000949 µM): 109% and 99.5%; viability, T/C (compound 0.003 µM): 97.1% and 97.7%; viability, T/C (compound 0.00949 µM): 97.5% and 83.8%; viability, T/C (compound 0.03 µM): 104% and 97.5%; viability, T/C (compound 0.0949 µM): 110% and 96.7%; viability, T/C (compound 0.3 µM): 107% and 99.8%
CC(C)CC(NC(=O)C(Cc1ccccc1)NC(=O)c1cnccn1)B(O)O (stereo not drawn)							0.00688 µM and 0.00733 µM	viability, T/C (compound 0.000949 µM): 89.2% and 97.4%; viability, T/C (compound 0.003 µM): 109% and 134%; viability, T/C (compound 0.00949 µM): 31.1%; viability, T/C (compound 0.03 µM): 23.3% and 18.4%; viability, T/C (compound 0.0949 µM): 12.5% and 15.6%; viability, T/C (compound 0.3 µM): 5.93% and 5.56%
CC(CO)NC(=O)c1cc(-c2ccc(Cl)cc2)nn(-c2cnn(C)c2)c1=O (stereo not drawn)	86.9% and 92.3%	92.6% and 87.3%	97.4% and 89.7%	100% and 101%	107% and 110%	105% and 104%	> 10 µM	
CC(Nc1ccc2c(c1)OCCn1cc(N3C(=O)OCC3C(F)F)nc1-2)C(N)=O (stereo not drawn)	95.1% and 99.5%	102% and 117%	116% and 105%	100% and 102%	91.4% and 89.5%	86.5% and 79.1%	> 10 µM	
CC1(C)CCC(CN2CCN(c3ccc(C(=O)NS(=O)(=O)c4ccc(NCC5CCOCC5)c([N+](=O)[O-])c4)c(Oc4cnc5[nH]ccc5c4)c3)CC2)=C(c2ccc(Cl)cc2)C1	94.5% and 89%	101% and 106%	98.6% and 95%	100% and 93.7%	120% and 119%	33.1% and 28%	7.56 µM and 7.07 µM	
CC1COCCN1c1cc(C2(S(C)(=N)=O)CC2)nc(-c2ccnc3[nH]ccc23)n1 (stereo not drawn)	91.5% and 90.7%	97.5% and 93.1%	94.5% and 104%	108% and 91.3%	109% and 108%	102% and 113%	> 10 µM	
CCCS(=O)(=O)Nc1ccc(F)c(C(=O)c2c[nH]c3ncc(-c4ccc(Cl)cc4)cc23)c1F	103% and 95.3%	109% and 96.8%	95.8% and 90.5%	93.7% and 90.6%	91.3% and 80.7%	123% and 108%	> 10 µM	
CCN1CCN(Cc2ccc(Nc3ncc(F)c(-c4cc(F)c5nc(C)n(C(C)C)c5c4)n3)nc2)CC1	115% and 116%	140% and 113%	128% and 129%	117% and 116%			> 1 µM	viability, T/C (compound 0.00316 µM): 91.1% and 106%; viability, T/C (compound 0.01 µM): 114% and 96.1%
CCc1c2c(nc3ccc(O)cc13)-c1cc3c(c(=O)n1C2)COC(=O)[C@]3(O)CC	10.9% and 13.2%	7.63% and 7.75%	7.05% and 6.79%	14.8% and 15.6%			< 0.00316 µM and 0.00383 µM	viability, T/C (compound 0.00316 µM): 46.5% and 55.5%; viability, T/C (compound 0.01 µM): 22.5% and 24.9%
CN1CCN(c2cc(C(=O)Nc3cc4cc(-c5cnn(C)c5)ccc4cn3)ccn2)CC1	95.6% [middle of 12 runs]		83% [middle of 12 runs]	0.9% [middle of 11 runs]	1.39% [middle of 12 runs]	1.68% [middle of 11 runs]		IC50 (compound alone, run of 08/14/2023): 504 nM [middle of 12 runs]
CNC(=O)c1ccc(Nc2nc(OC3CCCC3)c3c(-c4ccc5nc(C)oc5c4)c[nH]c3n2)c(OC)c1	91.6% [middle of 12 runs]	96.7% [middle of 12 runs]	82.6% [middle of 12 runs]	70.9% [middle of 12 runs]	71.5% [middle of 12 runs]	76.5% [middle of 12 runs]		IC50 (compound alone, run of 08/15/2023): > 10 µM
COC1C=CCC(C)C(C)S(=O)(=O)NC(=O)c2ccc3c(c2)N(CC2CCC21)CC1(CCCc2cc(Cl)ccc21)CO3 (stereo not drawn)	92.5% and 105%	109% and 93.5%	101% and 105%	132% and 123%	105%	86.1% and 74.7%	> 10 µM	
COc1c(OCCCN2CCOCC2)ccc2c3n(c(=NC(=O)c4cnc(N)nc4)nc12)CCN3	109% and 111%	77.3% and 65.7%	50.9% and 52%	41.1% and 39.6%			0.281 µM and 0.248 µM	viability, T/C (compound 0.00316 µM): 97% and 92.1%; viability, T/C (compound 0.01 µM): 101% and 121%
Cn1ncnc1[C@H]1c2n[nH]c(=O)c3cc(F)cc(c23)N[C@@H]1c1ccc(F)cc1	94.3% and 105%	97.9% and 98.6%					> 0.1 µM	viability, T/C (compound 0.000316 µM): 94.6% and 84.6%; viability, T/C (compound 0.001 µM): 88.2% and 97.3%; viability, T/C (compound 0.00316 µM): 100% and 92.9%; viability, T/C (compound 0.01 µM): 94.7% and 89.8%
NC(=O)C(=Cn1cnc(-c2cc(C(F)(F)F)cc(C(F)(F)F)c2)n1)c1cncnc1							> 3 µM	viability, T/C (compound 0.00949 µM): 94.3% and 112%; viability, T/C (compound 0.03 µM): 120% and 123%; viability, T/C (compound 0.0949 µM): 176% and 183%; viability, T/C (compound 0.3 µM): 193% and 186%; viability, T/C (compound 0.949 µM): 169% and 182%; viability, T/C (compound 3 µM): 122% and 136%
Nc1ccccc1NC(=O)c1ccc(CNC(=O)OCc2cccnc2)cc1	83.9% and 90.3%	105% and 96.6%	94.3% and 91.9%	92.6% and 90.3%	88.2% and 84.8%	31.5% and 37%	6.87 µM and 7.34 µM	
Nc1ccn(C2OC(CO)C(O)C2(F)F)c(=O)n1 (stereo not drawn)	46.4% and 56.8%	30.6% and 37.9%	29.7% and 32.5%	31.6% and 32.8%	31.5% and 31.4%	26.7% and 30.9%	< 0.0316 µM and 0.0477 µM	
O=C(c1cc(Cc2n[nH]c(=O)c3ccccc23)ccc1F)N1CCN(C(=O)C2CC2)CC1	100% and 107%	97.7% and 89.2%	88.7% and 107%	98.2% and 104%	98.8% and 108%	89.5% and 94.8%	> 10 µM	
O=c1[nH]cc(F)c(=O)[nH]1	95.5% and 88.4%	96.6% and 84.4%	95.6% and 87.4%	96.9% and 95.8%	96.6% and 96%	88.5% and 82.3%	> 10 µM	
